Results taken from article PMC2939063, “In Vitro and In Vivo Studies of the Trypanocidal Properties of WRR-483 against Trypanosoma cruzi” (PLoS Neglected Tropical Diseases, 2010).
“Also recorded” adds a separate entry of the source.

Assays:
[1] = molecular target: T1, Cathepsin C (Homo sapiens, UniProt P53634); experiment: Protease inhibition profiling (Reaction Biology Corp): Cathepsin C; assay type: biochemical
T1 construct: Reaction Biology Corp (screening service)

[2] = molecular target: T2, Cathepsin K (Homo sapiens, UniProt P43235); experiment: Protease inhibition profiling (Reaction Biology Corp): Cathepsin K; assay type: biochemical
T2 construct: Reaction Biology Corp (screening service)
T2 sequence (P43235 115-329): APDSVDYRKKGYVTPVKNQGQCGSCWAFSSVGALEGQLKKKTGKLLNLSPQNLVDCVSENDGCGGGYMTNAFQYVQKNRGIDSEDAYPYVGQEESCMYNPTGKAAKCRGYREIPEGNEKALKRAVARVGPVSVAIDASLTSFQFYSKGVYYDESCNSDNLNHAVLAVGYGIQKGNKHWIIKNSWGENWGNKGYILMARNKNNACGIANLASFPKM

[3] = molecular target: T3, Cathepsin S (Homo sapiens, UniProt P25774); experiment: Protease inhibition profiling (Reaction Biology Corp): Cathepsin S; assay type: biochemical
T3 construct: Reaction Biology Corp (screening service)
T3 sequence (P25774 115-331, species assumed): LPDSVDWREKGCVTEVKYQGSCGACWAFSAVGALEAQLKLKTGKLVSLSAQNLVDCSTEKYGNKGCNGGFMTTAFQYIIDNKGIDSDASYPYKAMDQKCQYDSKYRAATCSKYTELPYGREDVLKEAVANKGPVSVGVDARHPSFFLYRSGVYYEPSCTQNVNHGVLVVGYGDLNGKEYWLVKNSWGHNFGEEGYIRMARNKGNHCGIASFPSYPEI

[4] = system: T. cruzi CA-I/72 infected C3H mice; experiment: Murine model of acute Chagas' disease; assay type: in vivo, mouse; set-up: key to Histopathology, Heart / Histopathology, Liver / Histopathology, Spleen / Histopathology, Colon: I/I: Inflammation and infiltration; +10A: Numerous nests of T. cruzi amastigotes; +A: 1-3 nests of T. cruzi amastigotes; Negative
Protocol: Three to four week old female C3H mice weighing ca. 20 g were used. The animals were separated into five lots of 5 mice per cage and infected with 10^6 tissue-culture derived trypomastigotes of the myotropic T. cruzi CA-I/72 cloned stock. The mice were treated with 100 mg compound/kg of body weight in 100 µL of solution (30–40% DMSO: 60–70% sterile distilled water) intraperitoneally twice a day. Treatment was initiated 12 h post infection and continued until cure, death of the animals, or for a total of 20 days. […] Parasitemias was determined at the end of the experiment when animals were euthanized. Tissues processed for histopathology include skeletal muscle, heart, liver, spleen, and colon. Blood (5–50 µL) was used for hemocultures. […] Compounds were considered toxic if life expectancy is lower than untreated controls (negative values). If necessary, PCR of blood and tissues was performed to confirm effectiveness of treatment and/or cure of treated animals. Results were expressed as survival (days) of treated animals.

[5] = molecular target: T4, Cruzain (Trypanosoma cruzi, UniProt P25779); experiment: Cruzain enzyme assay (acetate buffer pH 5.5, Z-Phe-Arg-AMC); assay type: biochemical; details: 100 mM sodium acetate pH 5.5, 5 mM DTT
T4 construct: made in house
T4 sequence (P25779 123-337 limits assumed): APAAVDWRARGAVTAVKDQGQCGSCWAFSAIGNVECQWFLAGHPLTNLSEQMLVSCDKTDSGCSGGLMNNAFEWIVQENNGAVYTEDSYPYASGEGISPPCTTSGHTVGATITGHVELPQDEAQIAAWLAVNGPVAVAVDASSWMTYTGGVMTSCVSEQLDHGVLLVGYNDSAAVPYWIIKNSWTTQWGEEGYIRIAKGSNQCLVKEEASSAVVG
Protocol: Cruzain[27],[28], rhodesain [29], and tbcatB [30] were recombinantly expressed as described previously. TbcatB assays were performed as described previously.[31] Cruzain (2 nM) or rhodesain (3 nM) was incubated with 0.5 to 10 µM inhibitor concentration in 100 mM sodium acetate at pH 5.5, containing 5 mM DTT (buffer A) for 5 min at room temperature. Then buffer A containing Z-Phe-Arg-AMC (Bachem, K M = 1 µM) was added to enzyme inhibitor to give 20 µM substrate concentration in 200 µL, and the increase in fluorescence (excitation at 355 nm and emission at 460 nm) was followed with an automated microtiter plate spectrofluorometer (Molecular Devices, Flex station). Inhibitor stock solutions were prepared at 20 mM in DMSO, and serial dilutions were made in DMSO (0.7% DMSO in assay). Controls were performed using enzyme alone and enzyme with DMSO. IC50 values were determined graphically using inhibitor concentrations in the linear portion of a plot of inhibition versus log[I] […]
Inhibitor dilutions which produce simple exponential progress curves over a wide range of k obs, were used to determine kinetic parameters. The value of k obs, the rate constant for loss of enzyme activity, was determined from an equation for pseudo first order dynamics using Prism 4.0 (GraphPad). When k obs varied linearly with inhibitor concentration, k ass was determined by linear regression analysis. […]

[6] = molecular target: T5, Papain (Carica papaya, UniProt P00784); experiment: Protease inhibition profiling (Reaction Biology Corp): Papain; assay type: biochemical
T5 construct: Reaction Biology Corp (screening service)
T5 sequence (P00784 134-345): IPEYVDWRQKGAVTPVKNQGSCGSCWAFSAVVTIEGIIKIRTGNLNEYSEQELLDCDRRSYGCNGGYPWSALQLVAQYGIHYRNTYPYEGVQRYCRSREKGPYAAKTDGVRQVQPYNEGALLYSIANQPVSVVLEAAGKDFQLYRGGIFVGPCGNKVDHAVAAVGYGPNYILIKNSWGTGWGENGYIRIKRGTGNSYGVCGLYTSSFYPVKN

[7] = system: T. cruzi infection in BESM cells; set-up: method as in PMID 20547819; details: read-out: EC50 against T. cruzi infection in BESM cells; cited from earlier work
[8] = system: T. cruzi infected J774 macrophages; experiment: T. cruzi growth inhibition in infected J774 macrophages (cell survival); assay type: cell-based, Trypanosoma cruzi CA-I/72; details: 10 µM inhibitor every 48 h until Day 27, experiment terminated on Day 47, untreated control 6 days
Protocol: CA-I/72 T. cruzi parasites were isolated from a chronic Chagasic patient, cloned, and maintained as previously described.[33]
For growth inhibition studies, J774 macrophages cultured in RPMI-1640 medium with 5% heat inactivated fetal calf serum (FCS) were irradiated (9000 rad) to arrest the cell cycle and plated onto 12-well tissue culture plates for 24 h at 37°C. After infection with 10^5 T. cruzi trypomastigotes per well for 2 hours, monolayers were washed with RPMI medium and treated with the inhibitors at 10 µM in RPMI medium (triplicate wells per inhibitor). Inhibitor stocks were made to 10 mM in DMSO and diluted prior to use. All assays include untreated, K11777-treated, and uninfected macrophage controls. Fresh medium with or without inhibitor was replaced every 48 h and inhibitor efficacy was monitored daily. Survival time was defined as the time before the cell monolayer was destroyed by the infection. Under these culture conditions, T. cruzi completed the intracellular cycle in 6 days in untreated controls. […] Macrophages were subsequently cultured in normal medium for up to 40 days to elucidate if the effective inhibitors were trypanocidal (cure host macrophages) or trypanostatic (delay intracellular cycle of the parasite).

[9] = molecular target: T6, tbcatB (Trypanosoma brucei, UniProt Q6R7Z5); experiment: tbcatB enzyme assay; assay type: biochemical
T6 construct: made in house
T6 sequence (Q6R7Z5 23-340): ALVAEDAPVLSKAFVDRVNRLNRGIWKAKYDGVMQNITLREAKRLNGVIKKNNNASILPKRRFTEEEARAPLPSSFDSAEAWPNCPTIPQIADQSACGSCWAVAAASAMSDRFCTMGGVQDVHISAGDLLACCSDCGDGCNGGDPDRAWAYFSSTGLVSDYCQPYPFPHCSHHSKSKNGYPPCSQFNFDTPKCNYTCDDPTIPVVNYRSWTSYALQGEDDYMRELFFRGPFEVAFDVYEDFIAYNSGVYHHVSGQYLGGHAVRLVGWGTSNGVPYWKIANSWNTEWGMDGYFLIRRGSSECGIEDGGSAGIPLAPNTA
Protocol: (§1) Cruzain[27],[28], rhodesain [29], and tbcatB [30] were recombinantly expressed as described previously. TbcatB assays were performed as described previously.[31] Cruzain (2 nM) or rhodesain (3 nM) was incubated with 0.5 to 10 µM inhibitor concentration in 100 mM sodium acetate at pH 5.5, containing 5 mM DTT (buffer A) for 5 min at room temperature. Then buffer A containing Z-Phe-Arg-AMC (Bachem, K M = 1 µM) was added to enzyme inhibitor to give 20 µM substrate concentration in 200 µL, and the increase in fluorescence (excitation at 355 nm and emission at 460 nm) was followed with an automated microtiter plate spectrofluorometer (Molecular Devices, Flex station). Inhibitor stock solutions were prepared at 20 mM in DMSO, and serial dilutions were made in DMSO (0.7% DMSO in assay). Controls were performed using enzyme alone and enzyme with DMSO. IC50 values were determined graphically using inhibitor concentrations in the linear portion of a plot of inhibition versus log[I] (seven concentrations tested with at least two in the linear range).
(§2) Inhibitor dilutions which produce simple exponential progress curves over a wide range of k obs, were used to determine kinetic parameters. The value of k obs, the rate constant for loss of enzyme activity, was determined from an equation for pseudo first order dynamics using Prism 4.0 (GraphPad). When k obs varied linearly with inhibitor concentration, k ass was determined by linear regression analysis. If the variation was hyperbolic, indicating saturation inhibition kinetics, k inact and K i were determined from an equation describing a two-step irreversible inhibitor mechanism [k obs = k inact [I]o/([I]o+Ki* (1+[S]o/K M))] and non-linear regression analysis Prism 4.0.[32] All values were corrected for substrate concentration.

[10] = molecular target: T7, Cathepsin V (Homo sapiens, UniProt O60911); experiment: Protease inhibition profiling (Reaction Biology Corp): Cathepsin V; assay type: biochemical
T7 construct: Reaction Biology Corp (screening service)
T7 sequence (O60911 114-334, species assumed): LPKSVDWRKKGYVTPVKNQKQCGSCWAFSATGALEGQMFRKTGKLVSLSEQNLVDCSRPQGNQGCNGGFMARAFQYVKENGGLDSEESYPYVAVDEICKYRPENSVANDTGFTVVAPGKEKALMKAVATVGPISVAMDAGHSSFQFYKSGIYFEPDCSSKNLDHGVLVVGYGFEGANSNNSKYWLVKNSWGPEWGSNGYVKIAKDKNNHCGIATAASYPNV

[11] = molecular target: T8, Rhodesain (Trypanosoma brucei rhodesiense, UniProt Q95PM0); experiment: Rhodesain enzyme assay (acetate buffer pH 5.5, Z-Phe-Arg-AMC); assay type: biochemical, T. brucei; details: 100 mM sodium acetate pH 5.5, 5 mM DTT
T8 construct: made in house
T8 sequence (Q95PM0 entry or part of it): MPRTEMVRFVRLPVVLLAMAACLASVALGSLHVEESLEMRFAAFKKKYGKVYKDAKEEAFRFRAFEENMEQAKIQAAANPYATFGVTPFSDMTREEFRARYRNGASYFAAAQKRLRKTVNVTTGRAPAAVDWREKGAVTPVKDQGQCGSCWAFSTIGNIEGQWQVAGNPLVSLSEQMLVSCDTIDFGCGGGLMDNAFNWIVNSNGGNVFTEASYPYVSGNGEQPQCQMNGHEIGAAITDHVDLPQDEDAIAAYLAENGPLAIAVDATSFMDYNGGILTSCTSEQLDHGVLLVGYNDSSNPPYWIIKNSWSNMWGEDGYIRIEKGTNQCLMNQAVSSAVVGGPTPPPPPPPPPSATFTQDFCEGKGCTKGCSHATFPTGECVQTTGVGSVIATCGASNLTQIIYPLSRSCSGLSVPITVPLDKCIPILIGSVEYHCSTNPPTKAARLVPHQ
Protocol: as §1, §2

[12] = individual infected mice, 100 mg/kg ip
[13] = individual infected mice, 100 mg/kg ip, 100 mg/kg

T1 sequence (P53634 25-463, species assumed): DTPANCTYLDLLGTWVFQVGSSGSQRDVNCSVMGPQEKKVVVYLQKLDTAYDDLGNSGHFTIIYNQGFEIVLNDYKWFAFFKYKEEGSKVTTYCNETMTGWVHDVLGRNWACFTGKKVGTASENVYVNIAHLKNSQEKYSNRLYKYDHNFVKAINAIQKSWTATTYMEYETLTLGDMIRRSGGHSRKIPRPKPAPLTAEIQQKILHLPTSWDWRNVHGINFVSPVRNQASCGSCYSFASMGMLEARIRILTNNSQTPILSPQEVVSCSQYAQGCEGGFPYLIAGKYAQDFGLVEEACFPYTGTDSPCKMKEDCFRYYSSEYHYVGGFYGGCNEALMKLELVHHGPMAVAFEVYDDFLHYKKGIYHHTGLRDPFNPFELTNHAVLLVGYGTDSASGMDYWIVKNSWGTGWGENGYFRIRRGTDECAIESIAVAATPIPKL

SMILES	IC50 [1] [nM]	IC50 [2] [nM]	IC50 [3] [nM]	T. cruzi infected mouse survival ([4]; 100 mg inhibitor/kg body weight in two daily doses, intraperitoneally, untreated control 21 days) [days]	survival of the acute infection ([4]; 10^6 trypomastigotes CA-I/72, untreated controls died within 21–60 days)	Histopathology, Colon [4, 12]	Histopathology, Liver [4, 12]	Histopathology, Spleen [4, 12]	Histopathology, Heart [4, 13]	Histopathology, Sk. muscle [4, 13]	k obs/[I] at 1 µM, Cruzain [5]	IC50 [6] [nM]	EC50 [7] [nM]	T. cruzi infected cell survival [8] [days]	inhibition of tbcatB (in words) [9]	tbcatB k ass [9] [M⁻¹ s⁻¹]	inhibition at 1 µM ([9]; read-out: tbcatB % inhibition at 1 µM) [%]	IC50 [10] [nM]	k obs/[I] at 1 µM, Rhodesain [11]
CN1CCN(C(=O)N[C@@H](Cc2ccccc2)C(=O)N[C@H](/C=C/S(=O)(=O)c2ccccc2)CCc2ccccc2)CC1 [K11777]	0.4	25	0.6	110	survived the acute infection	N	N	N	Mild i/i and N	+AIntense i/i; also recorded: Moderate i/i; also recorded: +AModerate i/i; also recorded: Intense i/i	108,000±4,200 s^-1 M^-1	0.4	4200	47	weak inhibitors	500 ± 100	48	1.2	48,000±10,200 s^-1 M^-1
CC[C@@H]([C@H](C)O)n1ncn(-c2ccc(N3CCN(c4ccc(OC[C@@H]5CO[C@@](Cn6cncn6)(c6ccc(F)cc6F)C5)cc4)CC3)cc2)c1=O [posaconazole]													200						
